# Measured values reported in patent US5288709A, “Erythromycin derivatives” (priority 1991, dated 1994).
# How the values were obtained:
# Assay in all cases: In-vitro antimicrobial activity primary screen (agar dilution MIC)
# Format in all cases: cell-based
# Acinetobacter SP CMX 669 = details: Acinetobacter, SPCMX669, 24 h
# Experimental: (§1) The antimicrobial spectra of several of the compounds of the present invention were tested as described below.
# (§2) Twelve petri dishes containing successive aqueous dilutions of the test compounds, mixed with 10 mL of sterilized Brain Heart Infusion (BHI) agar (Difco 0418-01-5), were prepared. Each plate was inoculated with 1:100 (or 1:10 for slow growing strains (primarily Micrococcus and Streptococcus) dilutions of up to 32 different microorganisms, using a Steers replicator block. The inoculated plates were incubated at 35 37° C. for 20-24 hours. In addition, a control plate, using BHI agar containing no test compound, was prepared and incubated at the beginning and the end of each test.
# (§3) An additional plate containing a compound having known susceptibility patterns for the organisms being tested and belonging to the same antibiotic class as the test compounds was also prepared and incubated as a further control, as well as to provide test-to test comparability.
# (§4) After incubation, each plate was read. The MIC (minimum inhibitory concentration) is defined as the lowest concentration of test compound yielding no growth, a slight haze, or sparsely isolated colonies on the inoculum spot as compared to the growth control containing no test compound.
# Staphylococcus aureus 45 = details: BHI agar, 20-24 h, read-out: MIC
# Experimental: as §1, §2, §3, §4
# Pseudomonas cepacia 2961 = details: Burkholderia cepacia, 2961, 24 h, BHI agar, 20-24 h
# Experimental: as §1, §2, §3, §4
# Escherichia coli SS = details: BHI agar, 20-24 h, read-out: MIC
# Experimental: as §1, §2, §3, §4
# [1] = tested on: Pseudomonas aeruginosa A5007; details: Pseudomonas aeruginosa, A5007, 24 h
# Experimental: as §1, §2, §3, §4
# [2] = tested on: Micrococcus luteus ATCC 4698; details: Micrococcus luteus, ATCC4698, 24 h, BHI agar, 20-24 h
# Experimental: as §1, §2, §3, §4
# [3] = tested on: Pseudomonas aeruginosa K799/61; details: Pseudomonas aeruginosa, K799/61, 24 h, Pseudomonas aeruginosa K799/61; BHI agar, 20-24 h
# Experimental: as §1, §2, §3, §4
# [4] = tested on: Streptococcus bovis A5169; details: Streptococcus equinus, BHI agar, 20-24 h, read-out: MIC
# Experimental: as §1, §2, §3, §4
# [5] = tested on: Enterococcus faecium ATCC 8043; details: Enterococcus faecium, ATCC8043, 24 h
# Experimental: as §1, §2, §3, §4
# [6] = tested on: Staphylococcus aureus A5177; details: Staphylococcus aureus, A5177, 24 h, Staphylococcus aureus A5177; BHI agar, 20-24 h
# Experimental: as §1, §2, §3, §4
# Escherichia coli JUHL = details: Escherichia coli, 24 h
# Experimental: as §1, §2, §3, §4
# [7] = tested on: Staphylococcus aureus ATCC 6538P; details: Staphylococcus aureus, ATCC6538P, 24 h, BHI agar, 20-24 h
# Experimental: as §1, §2, §3, §4
# [8] = tested on: Enterobacter aerogenes ATCC 13048; details: Klebsiella aerogenes, ATCC13048, 24 h
# Experimental: as §1, §2, §3, §4
# [9] = tested on: Pseudomonas aeruginosa BMH10; details: Pseudomonas aeruginosa, BMH10, 24 h, BHI agar, 20-24 h
# Experimental: as §1, §2, §3, §4
# [10] = tested on: Micrococcus luteus ATCC 9341; details: Micrococcus luteus, ATCC9341, 24 h, BHI agar, 20-24 h
# Experimental: as §1, §2, §3, §4
# [11] = tested on: Staphylococcus aureus 45 RAR2; details: Staphylococcus aureus, 45RAR2, 24 h, BHI agar, 20-24 h
# Experimental: as §1, §2, §3, §4
# Escherichia coli H560 = details: Escherichia coli, H560, 24 h, Escherichia coli H560; BHI agar, 20-24 h
# Experimental: as §1, §2, §3, §4
# [12] = tested on: Providencia stuartii CMX 640; details: Providencia stuartii, CMX640, 24 h
# Experimental: as §1, §2, §3, §4
# [13] = tested on: Pseudomonas aeruginosa K799/WT; details: Pseudomonas aeruginosa, K799/WT, 24 h
# Experimental: as §1, §2, §3, §4
# Escherichia coli DC-2 = details: Escherichia coli, DC2, 24 h
# Experimental: as §1, §2, §3, §4
# [14] = tested on: Streptococcus pyrogenes EES61; details: BHI agar, 20-24 h, read-out: MIC
# Experimental: as §1, §2, §3, §4
# [15] = tested on: Staphylococcus epidermidis 3519; details: Staphylococcus epidermidis, 3519, 24 h, BHI agar, 20-24 h
# Experimental: as §1, §2, §3, §4
# [16] = tested on: Streptococcus pyrogenes 2548 INDUC; details: BHI agar, 20-24 h, read-out: MIC
# Experimental: as §1, §2, §3, §4
# [17] = tested on: Streptococcus agalactiae CMX 508; details: Streptococcus agalactiae, CMX508, 24 h, BHI agar, 20-24 h
# Experimental: as §1, §2, §3, §4
# [18] = tested on: Klebsiella pneumoniae ATCC 8045; details: Klebsiella pneumoniae, ATCC8045, 24 h
# Experimental: as §1, §2, §3, §4
# [19] = tested on: Staphylococcus aureus CMX 686B; details: CMX686B, BHI agar, 20-24 h, read-out: MIC
# Experimental: as §1, §2
# (§5) An additional plate containing a compound having known susceptibility patterns for the organisms being tested and belonging to the same antibiotic class as the test compounds was also prepared and incubated as a further control, as well as to provide test-to test comparability. Erythromycin A was used for this purpose.
# as §4
# [20] = tested on: Staphylococcus aureus CMX 503A; details: Staphylococcus aureus, CMX503A, 24 h, BHI agar, 20-24 h, read-out: MIC
# Experimental: as §1, §2, §5, §4
# [21] = tested on: Staphylococcus aureus CMX 553; details: Staphylococcus aureus, CMX553, 24 h, BHI agar, 20-24 h, read-out: MIC
# Experimental: as §1, §2, §5, §4
structure (smiles),measurement,setting,value
"CC[C@H]1OC(=O)[C@H](C)[C@@H](O[C@H]2C[C@@](C)(OC)[C@H](N=CN(C)C)[C@H](C)O2)[C@H](C)[C@@H](O[C@@H]2O[C@H](C)C[C@H](N(C)C)[C@H]2O)[C@](C)(O)C[C@@H](C)[C@@H]2O[C@@]1(C)C(=O)[C@H]2C [Example 9, (4""R,9S)-9-Deoxo-4"",11,12-trideoxy-9,12-epoxy-4""-[[(dimethyamino)methylene]amino]-11-oxoerythromycin A]",MIC,Acinetobacter SP CMX 669,50 µg/mL
same,MIC,Staphylococcus aureus 45,0.39 µg/mL
same,MIC,Pseudomonas cepacia 2961,> 100 µg/mL
same,MIC,Escherichia coli SS,0.78 µg/mL
same,MIC,[1],> 100 µg/mL
same,MIC,[2],0.2 µg/mL
same,MIC,[3],3.1 µg/mL
same,MIC,[4],< 0.005 µg/mL
same,MIC,[5],0.1 µg/mL
same,MIC,[6],0.78 µg/mL
same,MIC,Escherichia coli JUHL,> 100 µg/mL
same,MIC,[7],0.39 µg/mL
same,MIC,[8],> 100 µg/mL
same,MIC,[9],> 100 µg/mL
same,MIC,[10],0.02 µg/mL
same,MIC,[11],0.78 µg/mL
same,MIC,Escherichia coli H560,50 µg/mL
same,MIC,[12],> 100 µg/mL
same,MIC,[13],100 µg/mL
same,MIC,Escherichia coli DC-2,> 100 µg/mL
same,MIC,[14],< 0.005 µg/mL
same,MIC,[15],0.39 µg/mL
same,MIC,[16],6.2 µg/mL
same,MIC,[17],0.01 µg/mL
same,MIC,[18],> 100 µg/mL
same,MIC,[19],0.39 µg/mL
same,MIC,[20],0.39 µg/mL
same,MIC,[21],0.39 µg/mL
